Assay results reported in ChEMBL document CHEMBL1201862, “PubChem BioAssay data set” (2004).
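Dose response: 5 concentrations. Exposure: 48 h. Format: 96-well plates. Endpoint: linear interpolation; highest concentration if not reached. GI50 is the concentration that inhibits growth by half.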 Calls of active or inactive are those of the source. Cut-off read from the data, not from the text of the source: active = GI50 up to about 1.1 µM and inactive = higher.

Tests used:
Experiment in all cases: inhibition of tumour cell growth, NCI panel, 48 h
LOX IMVI = system: LOX IMVI
MDA-MB-435 = system: MDA-MB-435
HCT-15 = system: HCT-15
UO-31 = system: UO-31
OVCAR-5 = system: OVCAR-5
U-251 = system: U-251
DU-145 = system: DU-145
CAKI-1 = system: CAKI-1
NCI-H522 = system: NCI-H522
HT-29 = system: HT-29
Malme-3M = system: Malme-3M
UACC-62 = system: UACC-62
SK-MEL-5 = system: SK-MEL-5
CCRF-CEM = system: CCRF-CEM
MDA-N = system: MDA-N
A498 = system: A498
SN12C = system: SN12C
SK-MEL-28 = system: SK-MEL-28
SF-539 = system: SF-539
KM12 = system: KM12

Compound: CC(=O)n1nc(-c2[nH]c(C)c(-c3nn(C(C)=O)c(=S)o3)c2C)oc1=S
- GI50 (LOX IMVI): 82.8 µM (inactive)
- GI50 (MDA-MB-435): > 100 µM (inactive)
- GI50 (HCT-15): > 100 µM
- GI50 (UO-31): > 100 µM (inactive)
- GI50 (OVCAR-5): > 100 µM (inactive)
- GI50 (U-251): > 100 µM (inactive)
- GI50 (DU-145): > 100 µM (inactive)
- GI50 (CAKI-1): > 100 µM (inactive)
- GI50 (NCI-H522): > 85.7 µM (inactive)
- GI50 (HT-29): > 100 µM (inactive)
- GI50 (Malme-3M): 30.1 µM (inactive)
- GI50 (UACC-62): > 100 µM (inactive)
- GI50 (SK-MEL-5): > 100 µM (inactive)
- GI50 (CCRF-CEM): 12.9 µM (inactive)
- GI50 (MDA-N): > 100 µM (inactive)
- GI50 (A498): > 100 µM (inactive)
- GI50 (SN12C): > 100 µM (inactive)
- GI50 (SK-MEL-28): > 100 µM (inactive)
- GI50 (SF-539): 81.7 µM (inactive)
- GI50 (KM12): > 100 µM (inactive)

Compound: Cc1cc(S(=O)(=O)Nc2nc(N)n(C)n2)c(S)cc1Cl
- GI50 (LOX IMVI): > 10 µM (inactive)
- GI50 (MDA-MB-435): > 10 µM (inactive)
- GI50 (HCT-15): > 10 µM
- GI50 (UO-31): > 10 µM (inactive)
- GI50 (OVCAR-5): > 10 µM (inactive)
- GI50 (U-251): > 10 µM (inactive)
- GI50 (DU-145): > 10 µM (inactive)
- GI50 (CAKI-1): > 10 µM (inactive)
- GI50 (NCI-H522): > 10 µM (inactive)
- GI50 (HT-29): > 10 µM (inactive)
- GI50 (Malme-3M): > 10 µM (inactive)
- GI50 (UACC-62): > 10 µM (inactive)
- GI50 (SK-MEL-5): > 10 µM (inactive)
- GI50 (CCRF-CEM): > 10 µM (inactive)
- GI50 (MDA-N): > 10 µM (inactive)
- GI50 (A498): > 10 µM (inactive)
- GI50 (SN12C): > 10 µM (inactive)
- GI50 (SK-MEL-28): > 10 µM (inactive)
- GI50 (SF-539): > 10 µM (inactive)
- GI50 (KM12): > 10 µM (inactive)

Compound: C=C(CC)C(=O)c1ccc(OCC(=O)O)c(Cl)c1Cl [ETHACRYNIC ACID]
- GI50 (LOX IMVI): 14.7 µM (inactive)
- GI50 (MDA-MB-435): 17.5 µM (inactive)
- GI50 (HCT-15): 22.6 µM
- GI50 (UO-31): 19.5 µM (inactive)
- GI50 (OVCAR-5): 29.8 µM (inactive)
- GI50 (U-251): 16 µM (inactive)
- GI50 (DU-145): 29.5 µM (inactive)
- GI50 (CAKI-1): 14.9 µM (inactive)
- GI50 (NCI-H522): 14.8 µM (inactive)
- GI50 (HT-29): 17.9 µM (inactive)
- GI50 (Malme-3M): 16.9 µM (inactive)
- GI50 (UACC-62): 15.2 µM (inactive)
- GI50 (SK-MEL-5): 25.8 µM (inactive)
- GI50 (CCRF-CEM): 35.8 µM (inactive)
- GI50 (MDA-N): 23.1 µM (inactive)
- GI50 (A498): 35.8 µM (inactive)
- GI50 (SN12C): 20 µM (inactive)
- GI50 (SK-MEL-28): 17.6 µM (inactive)
- GI50 (SF-539): 7.87 µM (inactive)
- GI50 (KM12): 5.5 µM (inactive)

Compound: CC(=O)OCC12C(OC(C)=O)C[C@@H](C)C3(CC(c4ccoc4)OC3=O)C1CCC(O)C21CO1 (stereo partly specified)
- GI50 (LOX IMVI): > 100 µM (inactive)
- GI50 (MDA-MB-435): > 100 µM (inactive)
- GI50 (HCT-15): > 100 µM
- GI50 (UO-31): > 100 µM (inactive)
- GI50 (OVCAR-5): > 100 µM (inactive)
- GI50 (U-251): > 100 µM (inactive)
- GI50 (DU-145): > 100 µM (inactive)
- GI50 (CAKI-1): > 100 µM (inactive)
- GI50 (NCI-H522): > 100 µM (inactive)
- GI50 (HT-29): > 100 µM (inactive)
- GI50 (Malme-3M): > 100 µM (inactive)
- GI50 (UACC-62): > 100 µM (inactive)
- GI50 (SK-MEL-5): > 100 µM (inactive)
- GI50 (MDA-N): > 100 µM (inactive)
- GI50 (A498): > 100 µM (inactive)
- GI50 (SN12C): > 100 µM (inactive)
- GI50 (SK-MEL-28): > 100 µM (inactive)
- GI50 (SF-539): > 100 µM (inactive)
- GI50 (KM12): > 100 µM (inactive)

Compound: N#CC1=C(N2CCOCC2)CCC1
- GI50 (LOX IMVI): > 100 µM (inactive)
- GI50 (MDA-MB-435): > 100 µM (inactive)
- GI50 (HCT-15): > 100 µM
- GI50 (UO-31): > 100 µM (inactive)
- GI50 (OVCAR-5): > 100 µM (inactive)
- GI50 (U-251): > 100 µM (inactive)
- GI50 (DU-145): > 100 µM (inactive)
- GI50 (CAKI-1): > 100 µM (inactive)
- GI50 (NCI-H522): > 100 µM (inactive)
- GI50 (HT-29): > 100 µM (inactive)
- GI50 (Malme-3M): > 100 µM (inactive)
- GI50 (UACC-62): > 100 µM (inactive)
- GI50 (SK-MEL-5): > 100 µM (inactive)
- GI50 (CCRF-CEM): > 100 µM (inactive)
- GI50 (MDA-N): 52.6 µM (inactive)
- GI50 (A498): > 100 µM (inactive)
- GI50 (SN12C): > 100 µM (inactive)
- GI50 (SF-539): > 100 µM (inactive)
- GI50 (KM12): > 100 µM (inactive)

Compound: O=C1Nc2ccccc2/C1=C\c1c(Cl)nc2n1CCS2
- GI50 (LOX IMVI): 31.8 µM (inactive)
- GI50 (MDA-MB-435): 12.6 µM (inactive)
- GI50 (HCT-15): 22.5 µM
- GI50 (UO-31): 27 µM (inactive)
- GI50 (OVCAR-5): 29 µM (inactive)
- GI50 (U-251): 22.1 µM (inactive)
- GI50 (DU-145): 30.6 µM (inactive)
- GI50 (CAKI-1): 34.8 µM (inactive)
- GI50 (NCI-H522): 16.2 µM (inactive)
- GI50 (HT-29): 31.7 µM (inactive)
- GI50 (Malme-3M): 23.7 µM (inactive)
- GI50 (UACC-62): 13.5 µM (inactive)
- GI50 (SK-MEL-5): 14.6 µM (inactive)
- GI50 (CCRF-CEM): 26.9 µM (inactive)
- GI50 (MDA-N): 15.7 µM (inactive)
- GI50 (A498): 18.8 µM (inactive)
- GI50 (SN12C): 24.9 µM (inactive)
- GI50 (SK-MEL-28): 32.4 µM (inactive)
- GI50 (KM12): 17.9 µM (inactive)

Compound: COc1cc([C@H]2Oc3c(OC)cc(CCCO)cc3[C@@H]2CO)ccc1O [DIHYDRODEHYDRODICONIFERY ALCOHOL]
- GI50 (LOX IMVI): > 100 µM (inactive)
- GI50 (MDA-MB-435): > 100 µM (inactive)
- GI50 (HCT-15): > 100 µM
- GI50 (UO-31): 57.8 µM (inactive)
- GI50 (OVCAR-5): > 100 µM (inactive)
- GI50 (U-251): > 100 µM (inactive)
- GI50 (DU-145): > 100 µM (inactive)
- GI50 (NCI-H522): 69.2 µM (inactive)
- GI50 (HT-29): > 100 µM (inactive)
- GI50 (Malme-3M): > 100 µM (inactive)
- GI50 (UACC-62): 55.3 µM (inactive)
- GI50 (SK-MEL-5): 39 µM (inactive)
- GI50 (CCRF-CEM): > 100 µM (inactive)
- GI50 (MDA-N): > 100 µM (inactive)
- GI50 (A498): 50.6 µM (inactive)
- GI50 (SN12C): > 100 µM (inactive)
- GI50 (SK-MEL-28): > 100 µM (inactive)
- GI50 (SF-539): > 100 µM (inactive)
- GI50 (KM12): > 100 µM (inactive)
